Earlier results on one molecule are cited in PubChem BioAssay AID1259409 (Chemical Carcinogenesis Research Information System (CCRIS), 2018).

This series relates to rodent chemically induced tumor inhibition, incidence and multiplicity. Nature of the series: CCRIS tumor inhibitor studies.

In the case of `Cn1c(=O)c2c(ncn2C)n(C)c1=O`, the “tumour outcome (control, treated, inhibition, significance)” value (Carcinogen: DIETHYLNITROSAMINE, 55-18-5, Dose [Inhibitor]: 0, 600 MG/L IN DRINKING WATER BEGINNING 3 D PRIOR TO FIRST CARCINOGEN DOSE AND CONTINUING TO 14 D POST LAST CARCINOGEN D, Route [Inhibitor]: ORAL, Species: RAT, Strain/Sex: BD6/FEMALE, Target Tissue: Type of Lesion: ESOPHAGUS: TUMOR, Dose [Carcinogen]: 80 MG/KG BW 1/WK FOR 7 WK, Promoter: NONE USED) is on record as 25%, 11%, 56%, not significant; the “tumour outcome (control, treated, inhibition, significance)” value (Carcinogen: DIETHYLNITROSAMINE, 55-18-5, Dose [Inhibitor]: 0, 600 MG/L IN DRINKING WATER BEGINNING 3 D PRIOR TO FIRST CARCINOGEN DOSE AND CONTINUING TO 14 D POST LAST CARCINOGEN D, Route [Inhibitor]: ORAL, Species: RAT, Strain/Sex: BD6/FEMALE, Target Tissue: Type of Lesion: ESOPHAGUS: TUMOR, Dose [Carcinogen]: 80 MG/KG BW 1/WK FOR 8 WK, Promoter: NONE USED) was 18%, 22%, -22%, not significant; the “tumour outcome (control, treated, inhibition, significance)” value (Carcinogen: DIETHYLNITROSAMINE, 55-18-5, Dose [Inhibitor]: 0, 600 MG/L IN DRINKING WATER BEGINNING 3 D PRIOR TO FIRST CARCINOGEN DOSE AND CONTINUING TO 14 D POST LAST CARCINOGEN D, Route [Inhibitor]: ORAL, Species: RAT, Strain/Sex: BD6/FEMALE, Target Tissue: Type of Lesion: LIVER: TUMOR, Dose [Carcinogen]: 80 MG/KG BW 1/WK FOR 7 WK, Promoter: NONE USED) is recorded as 64%, 56%, 13%, not significant; the “tumour outcome (control, treated, inhibition, significance)” value (Carcinogen: DIETHYLNITROSAMINE, 55-18-5, Dose [Inhibitor]: 0, 600 MG/L IN DRINKING WATER FOR DURATION OF STUDY BEGINNING 4 D POST CARCINOGEN TREATMENT (STUDY DURATION: 6 MO), Route [Inhibitor]: ORAL, Species: RAT, Strain/Sex: BD6/FEMALE, Target Tissue: Type of Lesion: LIVER: TUMOR, Dose [Carcinogen]: 80 MG/KG BW 1/WK FOR 9 WK, Promoter: NONE USED) was 100%, 100%, 0%, not significant; the “tumour outcome (control, treated, inhibition, significance)” value (Carcinogen: DIETHYLNITROSAMINE, 55-18-5, Dose [Inhibitor]: 0, 600 MG/L IN DRINKING WATER FOR DURATION OF STUDY BEGINNING 4 D POST CARCINOGEN TREATMENT(STUDY DURATION: 6 MO), Route [Inhibitor]: ORAL, Species: RAT, Strain/Sex: BD6/FEMALE, Target Tissue: Type of Lesion: ESOPHAGUS: TUMOR, Dose [Carcinogen]: 80 MG/KG BW 1/WK FOR 9 WK, Promoter: NONE USED) is given as 29%, 21%, 28%, not significant; the “tumour outcome (control, treated, inhibition, significance)” value (Carcinogen: DIETHYLNITROSAMINE, 55-18-5, Dose [Inhibitor]: 0, 600 MG/L IN DRINKING WATER FOR DURATION OF STUDY BEGINNING 7 D PRIOR TO CARCINOGEN TREATMENT (STUDY DURATION: 6 MO), Route [Inhibitor]: ORAL, Species: RAT, Strain/Sex: BD6/FEMALE, Target Tissue: Type of Lesion: ESOPHAGUS: TUMOR, Dose [Carcinogen]: 80 MG/KG BW 1/WK FOR 5 WK, Promoter: NONE USED) is 6%, 11%, -83%, not significant. The “tumour outcome (control, treated, inhibition, significance)” value is, setting by setting: (Carcinogen: DIETHYLNITROSAMINE, 55-18-5, Dose [Inhibitor]: 0, 600 MG/L IN DRINKING WATER FOR DURATION OF STUDY BEGINNING 7 D PRIOR TO CARCINOGEN TREATMENT (STUDY DURATION: 6 MO), Route [Inhibitor]: ORAL, Species: RAT, Strain/Sex: BD6/FEMALE, Target Tissue: Type of Lesion: LIVER: TUMOR, Dose [Carcinogen]: 80 MG/KG BW 1/WK FOR 5 WK, Promoter: NONE USED) 44%, 41%, 7%, not significant; (Carcinogen: DIETHYNITROSAMINE, 55-18-5, Dose [Inhibitor]: 0, 600 MG/L IN DRINKING WATER BEGINNING 3 D PRIOR TO FIRST CARCINOGEN DOSE AND CONTINUING TO 14 D POST LAST CARCINOGEN D, Route [Inhibitor]: ORAL, Species: RAT, Strain/Sex: BD6/FEMALE, Target Tissue: Type of Lesion: LIVER: TUMOR, Dose [Carcinogen]: 80 MG/KG BW 1/WK FOR 8 WK, Promoter: NONE USED) 82%, 72%, 12%, not significant; (Carcinogen: N,N-DIETHYLNITROSAMINE, 55-18-5, Dose [Inhibitor]: 600 MG/L IN DRINKING WATER DAILY STARTING 3 D BEFORE START OF CARCINOGEN INJECTION AND CONTINUING UNTIL 2 WK AFTER LAST, Route [Inhibitor]: ORAL, Species: RAT, Strain/Sex: BDIV AND WISTAR/MALE, Target Tissue: Type of Lesion: LIVER: TUMOR, Dose [Carcinogen]: 80 MG/KG BW IN 0.2 ML 0.9% SALINE 1/WK FOR 10 WK, Promoter: NONE USED) 18/22 (82%), 12/18 (67%), 18%, not calculated; (Carcinogen: N-METHYL-N'-NITRO-N-NITROSOGUANIDINE, 70-25-7, Dose [Inhibitor]: 0, 0.25% IN DRINKING WATER FOR 32 WK BEGINNING POST CARCINOGEN TREATMENT (STUDY DURATION: 40 WK), Route [Inhibitor]: ORAL, Species: RAT, Strain/Sex: WISTAR/MALE, Target Tissue: Type of Lesion: GLANDULAR STOMACH (PYLORUS): ADENOCARCINOMA, Dose [Carcinogen]: 100 PPM IN DRINKING WATER FOR 8 WK, Promoter: SODIUM CHLORIDE, 7647-14-5) 4/29 (14%), 0/28 (0%), 100%, p<0.05; (Carcinogen: N-METHYL-N-NITROSOUREA, 684-93-5, Dose [Inhibitor]: 0, 500 MG/L IN DRINKING WATER BEGINNING AT 60 D OF AGE AND CONTINUING FOR DURATION OF STUDY (STUDY DURATION: 26 WK), Route [Inhibitor]: ORAL, Species: RAT, Strain/Sex: SPRAGUE-DAWLEY/FEMALE, Target Tissue: Type of Lesion: MAMMARY GLAND: CARCINOMA, Dose [Carcinogen]: 2.5 MG/100 G BW ONCE AT 57 D OF AGE, Promoter: NONE USED) 34/40 (85%), 31/40 (78%), 8%, not significant; (Carcinogen: N-METHYL-N-NITROSOUREA, 684-93-5, Dose [Inhibitor]: 0, 500 UG/L IN DRINKING WATER BEGINNING AT 29 D OF AGE AND CONTINUING TO D 60 OF AGE (STUDY DURATION: 30 WK), Route [Inhibitor]: ORAL, Species: RAT, Strain/Sex: SPRAGUE-DAWLEY, Target Tissue: Type of Lesion: MAMMARY GLAND: CARCINOMA, Dose [Carcinogen]: 2.5 MG/100 G BW ONCE AT 57 D OF AGE, Promoter: NONE USED) 34/40 (85%), 32/40 (80%), 6%, not significant. The “tumour outcome (control, treated, inhibition, significance)” value runs as follows: (Carcinogen: SUBCUTANEOUS, Dose [Inhibitor]: 4-(METHYLNITROSAMINO)-1-(3-PYRIDYL-1-BUTANONE), 64091-91-4, Route [Inhibitor]: 0, 680 PPM IN DRINKING WATER FOR 22 WK BEGINNING 1 WK PRIOR TO CARCINOGEN TREATMENT (STUDY DURATION: 101 WK), Species: RAT, Strain/Sex: ORAL, Target Tissue: Type of Lesion: LIVER :TUMOR, Dose [Carcinogen]: NONE USED) 11/32 (34%), 8/20 (40%), -18%, not significant; (Carcinogen: URETHANE, 51-79-6, Dose [Inhibitor]: 0.05 UMOL/G BW GIVEN AT 6 HR INTERVALS DURING THE PERIOD OF 0 TO 36 HR AFTER CARCINOGEN TREATMENT FOR 7 INJECTIONS FOLLO, Route [Inhibitor]: INTRAPERITONEAL, Species: MOUSE, Strain/Sex: ICR/FEMALE, Target Tissue: Type of Lesion: LUNG: PAPILLARY ADENOMA, Dose [Carcinogen]: 0.1 MG/G BW SINGLE INJECTION, Promoter: NONE USED) 31/59 (53%), 7/32 (22%), 58%, p<0.01.
